ChEMBL document CHEMBL4052690, “2-Chlorophenyl-substituted benzofuro[3,2-b]pyridines with enhanced topoisomerase inhibitory activity: The role of the chlorine substituent” (Bioorg Med Chem Lett, 2017)
Where a name gives a salt, the structure may show the parent alone.

Tests used:
[1] = species on record: Homo sapiens; assay: Inhibition of human recombinant DNA topoisomerase 2 assessed as reduction in enzyme-mediated relaxation of supercoiled pBR322 plasmid DNA at 100 uM in presence of 0.1% BSA by ethidium bromide staining based gel electrophoresis and UV spectroscopy
[2] = test system: HeLa; assay: Antiproliferative activity against human HeLa cells after 72 hrs by CCK8 assay; format: functional, cell-based
[3] = species on record: Homo sapiens; assay: Inhibition of human recombinant DNA topoisomerase 2 assessed as reduction in enzyme-mediated relaxation of supercoiled pBR322 plasmid DNA at 100 uM in presence of 0.1% BSA by ethidium bromide staining based gel electrophoresis and UV spectroscopy relative to etoposide
[4] = species on record: Homo sapiens; assay: Inhibition of human recombinant DNA topoisomerase 2 assessed as reduction in enzyme-mediated relaxation of supercoiled pBR322 plasmid DNA at 20 uM in presence of 0.1% BSA by ethidium bromide staining based gel electrophoresis and UV spectroscopy
[5] = test system: HCT-15; assay: Antiproliferative activity against human HCT15 cells after 72 hrs by CCK8 assay; format: functional, cell-based; details: HCT-15, 72 h
[6] = test system: T47D; assay: Antiproliferative activity against human T47D cells after 72 hrs by CCK8 assay; format: functional, cell-based
[7] = species on record: Homo sapiens; assay: Inhibition of human recombinant DNA topoisomerase 2 assessed as reduction in enzyme-mediated relaxation of supercoiled pBR322 plasmid DNA at 20 uM in presence of 0.1% BSA by ethidium bromide staining based gel electrophoresis and UV spectroscopy relative to etoposide
[8] = molecular target: T1, DNA topoisomerase 1 (Homo sapiens) (UniProt P11387); assay: Inhibition of human recombinant DNA topoisomerase 1 assessed as reduction in enzyme-mediated relaxation of supercoiled pBR322 plasmid DNA at 100 uM in presence of 0.1% BSA by ethidium bromide staining based gel electrophoresis and UV spectroscopy relative to camptothecin
T1 sequence (whole entry): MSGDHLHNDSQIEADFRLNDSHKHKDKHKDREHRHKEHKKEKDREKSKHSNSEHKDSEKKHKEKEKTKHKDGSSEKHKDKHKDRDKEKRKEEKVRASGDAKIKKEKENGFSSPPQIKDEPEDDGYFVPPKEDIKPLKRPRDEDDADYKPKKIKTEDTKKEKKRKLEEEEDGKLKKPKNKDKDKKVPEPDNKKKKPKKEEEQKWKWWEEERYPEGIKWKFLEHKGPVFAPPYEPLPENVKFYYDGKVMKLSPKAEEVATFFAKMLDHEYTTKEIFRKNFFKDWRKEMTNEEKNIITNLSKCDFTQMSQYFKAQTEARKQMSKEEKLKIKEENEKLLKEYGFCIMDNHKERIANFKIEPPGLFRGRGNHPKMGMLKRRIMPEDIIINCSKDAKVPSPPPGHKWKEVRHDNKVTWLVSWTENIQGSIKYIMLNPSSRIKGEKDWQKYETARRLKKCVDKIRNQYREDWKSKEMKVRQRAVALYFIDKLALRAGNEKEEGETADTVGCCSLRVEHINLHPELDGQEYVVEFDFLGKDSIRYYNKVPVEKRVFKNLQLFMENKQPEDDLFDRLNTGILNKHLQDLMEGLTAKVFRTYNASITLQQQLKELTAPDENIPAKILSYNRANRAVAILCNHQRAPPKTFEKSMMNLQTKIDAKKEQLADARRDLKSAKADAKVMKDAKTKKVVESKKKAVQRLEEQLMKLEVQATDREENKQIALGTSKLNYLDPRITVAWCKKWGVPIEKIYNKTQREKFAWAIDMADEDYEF

[9] = molecular target: T1, DNA topoisomerase 1 (Homo sapiens); assay: Inhibition of human recombinant DNA topoisomerase 1 assessed as reduction in enzyme-mediated relaxation of supercoiled pBR322 plasmid DNA at 100 uM in presence of 0.1% BSA by ethidium bromide staining based gel electrophoresis and UV spectroscopy

inhibition [1] [%]	IC50 [2] [µM]	fold change (FC) [3]	inhibition [4] [%]	IC50 [5] [µM]	IC50 [6] [µM]	fold change (FC) [7]	fold change (FC) [8]	inhibition [9] [%]	Structure (SMILES)
58.5	> 50	0.89	15.1	> 50	> 50	0.41	1.15	100	Clc1ccc(-c2cc(-c3cccs3)c3oc4ccccc4c3n2)cc1
83.2	13.3	1.59	14.6	20.6	19.4	0.46	0.63	54.6	Clc1ccccc1-c1cc(-c2ccoc2)c2oc3ccccc3c2n1
85.5	40.8	1.3	55.4	> 50	23.2	1.51	1.15	100	Clc1cccc(-c2cc(-c3ccco3)c3oc4ccccc4c3n2)c1
64.1	21.7	0.97	10.8	16.1	> 50	0.29	1.08	93.4	Clc1ccccc1-c1cc(-c2cccs2)c2oc3ccccc3c2n1
59.4	> 50	0.9	5.1	21.7	> 50	0.14	0.99	86.1	Clc1ccccc1-c1cc(-c2ccco2)c2oc3ccccc3c2n1
83	37.2	1.26	14.8	> 50	33.6	0.4	0.93	80.6	Clc1cccc(-c2cc(-c3ccccc3)c3oc4ccccc4c3n2)c1
52.3 to 66	4.12	–	31.5 to 36.8	9.27	–	–	–	–	COc1cc([C@@H]2c3cc4c(cc3[C@@H](O[C@@H]3O[C@@H]5CO[C@@H](C)O[C@H]5[C@H](O)[C@H]3O)[C@H]3COC(=O)[C@H]23)OCO4)cc(OC)c1O [ETOPOSIDE]
–	2.77	–	–	0.94	1.29	–	–	–	COc1cccc2c1C(=O)c1c(O)c3c(c(O)c1C2=O)C[C@@](O)(C(=O)CO)C[C@@H]3O[C@H]1C[C@H](N)[C@H](O)[C@H](C)O1 [DOXORUBICIN HYDROCHLORIDE]
96.2	36.5	1.46	80.9	> 50	13.2	2.2	1.15	100	Clc1ccc(-c2cc(-c3ccco3)c3oc4ccccc4c3n2)cc1
93.8	> 50	1.79	12.2	13.5	13.2	0.39	0.81	70.2	Clc1cccc(-c2cc(-c3ccsc3)c3oc4ccccc4c3n2)c1
78.2	> 50	1.19	17.6	> 50	> 50	0.48	1.15	100	Clc1ccc(-c2cc(-c3ccccc3)c3oc4ccccc4c3n2)cc1
86.1	41.1	1.65	50.4	17.6	18.1	1.6	0.97	84.3	Clc1cccc(-c2cc(-c3ccoc3)c3oc4ccccc4c3n2)c1
58.2	21.7	0.88	6.9	19.4	19.5	0.19	0.38	33	Clc1ccccc1-c1cc(-c2ccccc2)c2oc3ccccc3c2n1
88.7	16.6	1.7	82.1	38.6	18.5	2.61	0.95	86.5	Clc1ccc(-c2cc(-c3ccoc3)c3oc4ccccc4c3n2)cc1
86	> 50	1.64	29.5	> 50	> 50	0.94	1.15	100	Clc1ccc(-c2cc(-c3ccccc3Cl)nc3c2oc2ccccc23)o1
97.3	18.2	1.86	35.5	5.47	7.47	1.13	1.15	100	Clc1cccc(-c2cc(-c3ccc(Cl)o3)c3oc4ccccc4c3n2)c1
100	> 50	1.52	85.8	10.6	25.5	2.33	1.15	100	Clc1ccccc1-c1cc(-c2ccsc2)c2oc3ccccc3c2n1
100	16.4	1.91	73.7	> 50	11.4	2.34	0.81	98.9	Clc1ccc(-c2cc(-c3ccc(Cl)o3)c3oc4ccccc4c3n2)cc1
95.7	> 50	1.83	10.1	> 50	> 50	0.32	0.92	79.9	Clc1ccc(-c2cc(-c3ccsc3)c3oc4ccccc4c3n2)cc1
85.3	> 50	1.29	17.3	19.3	17.2	0.47	0.98	85.1	Clc1cccc(-c2cc(-c3cccs3)c3oc4ccccc4c3n2)c1

Structure (SMILES)	inhibition [1] [%]	IC50 [2] [µM]	fold change (FC) [3]	inhibition [4] [%]	IC50 [5] [µM]	IC50 [6] [µM]	fold change (FC) [7]	fold change (FC) [8]	inhibition [9] [%]
CC[C@@]1(O)C(=O)OCc2c1cc1n(c2=O)Cc2cc3ccccc3nc2-1 [CAMPTOTHECIN]	–	2.62	–	–	–	2.31	–	–	–
